Results: the supplement of paper PMC10307832

Legend:
Experiment in all cases: relative viability (nuclei count vs DMSO), 5 days (fraction); higher = more cells survive
[1] = compound: C1COCCN1C2=NC(=NC3=C2OC4=C3C=CC=N4)C5=CC(=CC=C5)NC(=O)C6=CN=C(C=C6)N + CC(=O)Nc1cccc(-n2c(=O)n(C3CC3)c(=O)c3c(Nc4ccc(I)cc4F)n(C)c(=O)c(C)c32)c1 [Trametinib] (partner 0.02 µM)
Outline: (§1)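 Lung cancer cell lines, seeded in 1536-well plates, were treated the following day by pin tool with a single drug or with five library-drug doses (not always all listed) in √10 steps on top of a fixed anchor-drug dose. Cells were fixed and nuclei stained in one step after 5 days, and nuclei were counted. Relative viability is the nuclei count for treated wells divided by that for vehicle wells, reported as medians of duplicate plates.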

[2] = compound: C1COCCN1C2=NC(=NC3=C2OC4=C3C=CC=N4)C5=CC(=CC=C5)NC(=O)C6=CN=C(C=C6)N + CS(=O)(=O)CCNCc1ccc(-c2ccc3ncnc(Nc4ccc(OCc5cccc(F)c5)c(Cl)c4)c3c2)o1 [Lapatinib] (partner 2 µM)
Outline: as §1

[3] = compound: C1COCCN1C2=NC(=NC3=C2OC4=C3C=CC=N4)C5=CC(=CC=C5)NC(=O)C6=CN=C(C=C6)N + O=C(c1cc(Cc2n[nH]c(=O)c3ccccc23)ccc1F)N1CCN(C(=O)C2CC2)CC1 [Olaparib] (partner 8 µM)
Outline: as §1

SGI-1776 + Crizotinib = compound: CN1CCC(CNc2ccc3ncc(-c4cccc(OC(F)(F)F)c4)n3n2)CC1 [SGI-1776] + C[C@@H](Oc1cc(-c2cnn(C3CCNCC3)c2)cnc1N)c1c(Cl)ccc(F)c1Cl [Crizotinib] (partner 1 µM)
Outline: as §1

Cell Line: UMC-11
- relative viability ([1]; first compound 0.02 µM): 0.733
- relative viability ([1]; first compound 0.06325 µM): 0.809
- relative viability ([1]; first compound 0.2 µM): 0.572
- relative viability ([1]; first compound 0.6325 µM): 0.706
- relative viability ([1]; first compound 2 µM): 0.614
- relative viability ([2]; first compound 0.02 µM): 0.927
- relative viability ([2]; first compound 0.06325 µM): 1.09
- relative viability ([2]; first compound 0.2 µM): 0.918
- relative viability ([2]; first compound 0.6325 µM): 1.06
- relative viability ([2]; first compound 2 µM): 0.822
- relative viability ([3]; first compound 0.02 µM): 0.374
- relative viability ([3]; first compound 0.06325 µM): 0.37
- relative viability ([3]; first compound 0.2 µM): 0.354
- relative viability ([3]; first compound 0.6325 µM): 0.359
- relative viability ([3]; first compound 2 µM): 0.246
- relative viability (SGI-1776 + Crizotinib; first compound 0.08 µM): 0.614
- relative viability (SGI-1776 + Crizotinib; first compound 0.8 µM): 0.498
- relative viability (SGI-1776 + Crizotinib; first compound 2.53 µM): 0.665
- relative viability (SGI-1776 + Crizotinib; first compound 8 µM): 0.169
